Laboratory results taken from ChEMBL document CHEMBL4483862, “Open-source discovery of chemical leads for next-generation chemoprotective antimalarials” (2018).

Test system: Plasmodium berghei
Experiment: Luciferase/luciferin-expressing antifolate-resistant parasites were used to infect a culture of HepG2 cells that were pre-incubated with compounds. Infected hepatocytes emit light due to the luciferase reaction. Assay results are presented as the percent inhibition of light emission compared to control. […]
Assay type: functional
Details: sporozoite; for IC90: read-out: LUCIFERASE INFECTION ASSAY - IC90
[1] = read-out: LUCIFERASE INFECTION ASSAY - IC50

| SMILES | IC90 [µM] | further results |
| --- | --- | --- |
| O=C(N/N=C/c1ccc(N2CCOCC2)s1)c1ccc(COc2cccc3cccnc23)cc1 | > 10 | IC50 (HEPG2TOX_HILL_SLOPE 12.5, HEPG2TOX_R_SQUARED 0.767, PBLUC_HILL_SLOPE 2.46, PBLUC_R_SQUARED 0.528, read-out: LUCIFERASE INFECTION ASSAY - IC50): 5.64 µM |
| Cc1nn(C(=O)c2c(Cl)cccc2Cl)c(C)c1Cc1c(F)cccc1Cl | > 8.02 | IC50 [1]: 7 µM |
| CC(=O)O[C@H]1CC[C@]2(C)C3CC[C@]4(C)C(C5=CC(=O)OC5)CC[C@]4(O)C3CC[C@@H]2C1 (stereo partly specified) | 1.14 | IC50 (HEPG2TOX_HILL_SLOPE 2.72, HEPG2TOX_R_SQUARED 0.979, PBLUC_HILL_SLOPE 2.85, PBLUC_R_SQUARED 0.935, read-out: LUCIFERASE INFECTION ASSAY - IC50): 0.528 µM |
| COc1ccc(CN2CCN(c3nc4c(Cl)c(C)nn4c4ccccc34)CC2)cc1OC | > 10 | IC50 (HEPG2TOX_HILL_SLOPE 0.0984, HEPG2TOX_R_SQUARED 0.313, PBLUC_HILL_SLOPE 1.53, PBLUC_R_SQUARED 0.0755, read-out: LUCIFERASE INFECTION ASSAY - IC50): > 10 µM |
| COc1ccccc1C(CNC(=O)c1ccc(-c2ccccc2Cl)o1)N1CCCC1 (stereo unspecified) | 9.73 | IC50 (PBLUC_HILL_SLOPE 3.28, PBLUC_R_SQUARED 0.202, read-out: LUCIFERASE INFECTION ASSAY - IC50): 4.98 µM |
| Cc1c(C(=O)N2CCN(c3cc(C#N)ccn3)CC2)[nH]c2c1C(=O)CCC2 | > 10 | IC50 (HEPG2TOX_HILL_SLOPE 7.54, HEPG2TOX_R_SQUARED 0.56, read-out: LUCIFERASE INFECTION ASSAY - IC50): > 10 µM |
| O=C(NC1CC1)c1csc(C(O)c2cccc(OC(F)(F)F)c2)n1 (stereo unspecified) | 0.901 | IC50 (HEPG2TOX_HILL_SLOPE 2.47, HEPG2TOX_R_SQUARED 0.742, PBLUC_HILL_SLOPE 2.02, PBLUC_R_SQUARED 0.793, read-out: LUCIFERASE INFECTION ASSAY - IC50): 0.304 µM |
| O=C(NC12CC3CC(CC(C3)C1)C2)c1ccc(=O)n(Cc2ccccc2)n1 | > 10 | IC50 (PBLUC_HILL_SLOPE 1.2, PBLUC_R_SQUARED 0.803, read-out: LUCIFERASE INFECTION ASSAY - IC50): 5.96 µM |
| N#C/C(=C\c1cn(Cc2ccccc2)nc1-c1cccnc1)c1nc2ccccc2[nH]1 | 8.82 | IC50 (PBLUC_HILL_SLOPE 2.49, PBLUC_R_SQUARED 0.607, read-out: LUCIFERASE INFECTION ASSAY - IC50): 3.65 µM |
| CCCn1c(NC(=O)c2cc(-c3cccs3)nc3ccccc23)nc2ccccc21 | > 10 | IC50 (PBLUC_HILL_SLOPE 14.7, PBLUC_R_SQUARED 0.767, read-out: LUCIFERASE INFECTION ASSAY - IC50): 9.26 µM |
| COc1ccc(-c2cc(CN(C)c3ccc(S(=O)(=O)NC(C)(C)C)cc3[N+](=O)[O-])on2)cc1 | 4.2 | IC50 (HEPG2TOX_HILL_SLOPE 80.3, HEPG2TOX_R_SQUARED 0.674, PBLUC_HILL_SLOPE 12.7, PBLUC_R_SQUARED 0.427, read-out: LUCIFERASE INFECTION ASSAY - IC50): 3.54 µM |
| CS(=O)(=O)Nc1cccc(CNC(=O)c2cccc3c4c([nH]c23)CCCC4)c1 | > 10 | IC50 (HEPG2TOX_HILL_SLOPE 8.62, HEPG2TOX_R_SQUARED 0.723, PBLUC_HILL_SLOPE 1.82, PBLUC_R_SQUARED 0.711, read-out: LUCIFERASE INFECTION ASSAY - IC50): 5.31 µM |
| CCCn1c(C)cc(/C=C(\C#N)C(=O)OCC(=O)Nc2sc(C)c(-c3ccc(C)cc3)c2C(=O)OCC)c1C | > 10 | IC50 (PBLUC_HILL_SLOPE 0.191, PBLUC_R_SQUARED 0.0121, read-out: LUCIFERASE INFECTION ASSAY - IC50): > 10 µM |
| CN(C)C(=O)c1ccc(-c2ccnc3n[nH]c(-c4ccc(Cl)cc4)c23)cc1 | 7.75 | IC50 (HEPG2TOX_HILL_SLOPE 12.3, HEPG2TOX_R_SQUARED 0.411, PBLUC_HILL_SLOPE 3.78, PBLUC_R_SQUARED 0.252, read-out: LUCIFERASE INFECTION ASSAY - IC50): 4.33 µM |
| COc1ccc(-c2nc(C=C3C(=O)c4ccccc4C3=O)cs2)cc1 | > 10 | IC50 [1]: > 10 µM |
| COc1ccc(C(=O)Nc2cccc(/C=C3\S/C(=N\C4CCCC4)NC3=O)c2)cc1 | > 10 | IC50 (HEPG2TOX_HILL_SLOPE 1.03, HEPG2TOX_R_SQUARED 0.894, PBLUC_HILL_SLOPE 3.32, PBLUC_R_SQUARED 0.257, read-out: LUCIFERASE INFECTION ASSAY - IC50): 5.96 µM |
| O=C(CN1c2cccc3cccc(c23)S1(=O)=O)N1CCN(C(=O)c2ccco2)CC1 | > 10 | IC50 [1]: > 10 µM |
| COc1ccc(N2CCN(c3nc(Nc4cc(C)nn4-c4ccccc4)c(Cl)cc3Cl)CC2)cc1 | > 10 | IC50 (HEPG2TOX_HILL_SLOPE 10.1, 8.63, HEPG2TOX_R_SQUARED 0.279, 0.753, PBLUC_HILL_SLOPE 15.1, PBLUC_R_SQUARED 0.229, read-out: LUCIFERASE INFECTION ASSAY - IC50): 9.89 µM |
| O=[N+]([O-])c1ccc(Sc2nc(-c3ccccc3)c(-c3ccccc3)[nH]2)cc1 | > 8.84 | IC50 (FFLUC_HILL_SLOPE 23.8, FFLUC_R_SQUARED 0.615, read-out: LUCIFERASE INFECTION ASSAY - IC50): > 8.84 µM |

| SMILES | IC90 [µM] | further results |
| --- | --- | --- |
| COc1ccc(C(CNC(=O)c2cc3cc(Br)ccc3[nH]2)N2CCCC2)cc1 (stereo unspecified) | > 10 | IC50 (PBLUC_HILL_SLOPE 3.58, PBLUC_R_SQUARED 0.137, read-out: LUCIFERASE INFECTION ASSAY - IC50): > 10 µM |
| COC(=O)c1ccc(=O)n(CC(=O)Nc2ccc(C(C)(C)C)cc2)c1 | > 10 | IC50 (PBLUC_HILL_SLOPE 11, PBLUC_R_SQUARED 0.594, read-out: LUCIFERASE INFECTION ASSAY - IC50): 9.09 µM |
| NC(Cc1ccc(C(F)(F)F)cc1)c1csc(NC(=O)Nc2ccccc2Cc2ccccc2)n1 (stereo unspecified) | 6.33 | IC50 (PBLUC_HILL_SLOPE 25.9, PBLUC_R_SQUARED 0.261, read-out: LUCIFERASE INFECTION ASSAY - IC50): 5.82 µM |
| CCOC(=O)C1=C(C)N(c2ccc(Cl)cc2)C(=O)NC1c1c(F)cccc1Cl (stereo unspecified) | > 10 | IC50 (FFLUC_HILL_SLOPE 0.633, FFLUC_R_SQUARED 0.184, HEPG2TOX_HILL_SLOPE 1.11, HEPG2TOX_R_SQUARED 0.991, PBLUC_HILL_SLOPE 1.36, PBLUC_R_SQUARED 0.55, read-out: LUCIFERASE INFECTION ASSAY - IC50): 3.38 µM |
| N#CN=c1nc(/C=C/c2ccc(Br)cc2)[nH]c(-c2ccccc2O)n1 | 5.46 | IC50 (FFLUC_HILL_SLOPE 1.52, FFLUC_R_SQUARED 0.887, PBLUC_HILL_SLOPE 1.8, PBLUC_R_SQUARED 0.711, read-out: LUCIFERASE INFECTION ASSAY - IC50): 1.61 µM |
| O=C(NCc1ccccc1)c1cccc(C2(CNc3cccc(OC(F)(F)F)c3)CC2)c1 | > 10 | IC50 [1]: > 10 µM |
| O=C1C(=O)N(Cc2ccc(F)cc2)c2c1cccc2C(F)(F)F | 6.88 | IC50 (HEPG2TOX_HILL_SLOPE 12.5, HEPG2TOX_R_SQUARED 0.837, PBLUC_HILL_SLOPE 3.51, PBLUC_R_SQUARED 0.677, read-out: LUCIFERASE INFECTION ASSAY - IC50): 3.68 µM |
| Fc1ccc(N/N=C/Cc2nnnn2-c2ccccc2)cc1 | > 11.1 | IC50 (HEPG2TOX_HILL_SLOPE 8.77, HEPG2TOX_R_SQUARED 0.625, PBLUC_HILL_SLOPE 4.51, PBLUC_R_SQUARED 0.347, read-out: LUCIFERASE INFECTION ASSAY - IC50): 7.9 µM |
| CCN(CC)c1ccc(/C=C2\CCC(/C=N/NC(=O)NC3CCCCC3)=C2N2CCOCC2)cc1 | > 10 | IC50 [1]: > 10 µM |
| O=C(NCc1sccc1CSc1ccc(Cl)cc1)Nc1cccc(C(F)(F)F)c1 | 5.08 | IC50 (HEPG2TOX_HILL_SLOPE 8.54, HEPG2TOX_R_SQUARED 0.938, PBLUC_HILL_SLOPE 7.51, PBLUC_R_SQUARED 0.41, read-out: LUCIFERASE INFECTION ASSAY - IC50): 3.79 µM |
| O=C1Nc2ccc([N+](=O)[O-])cc2C1=C(c1nc2ccccc2s1)c1nc2ccccc2s1 | > 10 | IC50 (FFLUC_HILL_SLOPE 9.66, FFLUC_R_SQUARED 0.665, read-out: LUCIFERASE INFECTION ASSAY - IC50): > 10 µM |
| CC1(C)CC(=O)C=C(SCC(=O)Nc2cccc(C(F)(F)F)c2)S1 | > 8.79 | IC50 [1]: > 8.79 µM |
| Cn1c(Nc2ccccc2)nc2cnc(-c3ccc(F)c(Cl)c3)cc21 | > 10 | IC50 (PBLUC_HILL_SLOPE 3.09, PBLUC_R_SQUARED 0.397, read-out: LUCIFERASE INFECTION ASSAY - IC50): 7.42 µM |
| Cc1cccc(NC(=O)CNC(=O)c2ccc3c(c2)C(=O)N(C)C3=O)c1C | > 10 | IC50 [1]: > 10 µM |
| CCN(CC)CCSc1nc(-c2ccc(C)cc2)nc2c1COC(C)(C)C2 | > 8.56 | IC50 (PBLUC_HILL_SLOPE 1.36, PBLUC_R_SQUARED 0.0849, read-out: LUCIFERASE INFECTION ASSAY - IC50): > 8.56 µM |
| Cc1cn2c(/C=C/c3nc4cc(Cl)ccc4o3)c(C)nc2s1 | > 10 | IC50 [1]: > 10 µM |
| O=C(N/N=C/c1cc(Br)ccc1O)c1ccccc1Oc1ccccc1 | 7.69 | IC50 (HEPG2TOX_HILL_SLOPE 3.72, HEPG2TOX_R_SQUARED 0.537, PBLUC_HILL_SLOPE 21.6, PBLUC_R_SQUARED 0.145, read-out: LUCIFERASE INFECTION ASSAY - IC50): 6.95 µM |
| NC(=O)c1cccc(CNc2cnn(CCOc3ccc(Cl)cc3)c(=O)c2Cl)c1 | > 10 | IC50 [1]: 2.11 µM |
| Cc1ccc(Cn2ccs/c2=N/C(=O)c2cc3c(s2)CCCCC3)cc1 | 0.491 | IC50 (PBLUC_HILL_SLOPE 1.2, PBLUC_R_SQUARED 0.823, read-out: LUCIFERASE INFECTION ASSAY - IC50): 0.0784 µM |
